In patent US20030104490A1, “Assay” (priority 2000, published 2003):

Columns and labels:
[1] = test system: CHO-T cells expressing an IRAP-GFP construct; assay: Insulin-induced translocation of IRAP-GFP (GLUT4 vesicles) to the plasma membrane, immunofluorescence, surface:total IRAP-GFP ratio; type: cell-based; conditions: unpermeabilised, anti-GFP staining vs GFP fluorescence, 200 nM insulin for 30 min, inhibitor (wortmannin) treatment preceding stimulation, 20 fields of view
Text: The IRAP-GFP construct used in this example was constructed using an IRAP fragment 66-533 (from the start site to the end of the extracellular ‘stalk’ region) which was generated by PCR using specific primers from a partial cDNA IRAP clone available to the inventors. The resulting fragment was cloned into the pcDNA3 vector using the flanking restriction enzyme sites. GFP3 with a C-terminal myc-tag was also generated by PCR using specific primers and the product cloned into pcDNA3 downstream of the IRAP insert.
CHO-T cells were transfected or microinjected with the IRAP-GFP construct and 24 h later were stimulated without or with 200 nM insulin for 30 min. This was preceded by treatment with an inhibitor (e.g. wortmannin) of insulin signalling.
Subsequently cells were fixed and stained with anti-GFP antibodies (Roche) without prior permeabilisation, as described below, in order to visualise GFP exposed on the surface of the plasma membrane only. […]
The total IRAP-GFP expression level is given by the level of GFP fluorescence (and this corresponds to the second detection method of the first aspect of the invention). […]
Fluorescence intensity due to IRAP-GFP fluorescence and surface IRAP-GFP immunostaining was then computed from cells imaged in 20 fields of view for each treatment condition. Results are expressed as an average ratio of surface:total IRAP-GFP.

[2] = test system: 3T3-L1 adipocytes microinjected with the IRAP-GFP construct; assay: Insulin-induced translocation of GLUT4-containing vesicles (IRAP-GFP) to the plasma membrane in 3T3-L1 adipocytes, confocal microscopy; type: cell-based; conditions: serum-starved 2 hours, 100 nM insulin for 30 minutes
Method: 3T3-L1 fibroblasts (between passages 4 and 12) were seeded onto 22 mm glass coverslips and allowed to grow to confluence. Differentiation into adipocytes was induced in DMEM containing 10% (v/v) myoclone-plus FCS, 0.25 μM dexamethasone, 0.5 mM isobutylmethylxanthine and 166 nM insulin for 2 days (day 0 to day 2). This medium was replaced with DMEM containing 10% (v/v) myoclone-plus FCS and 166 nM insulin for a further 2 days (day 2 to day 4). From day 4 onwards cells were maintained in DMEM containing 10% (v/v) myoclone-plus FCS, replacing the medium every two days. 3T3-L1 adipocytes were used between day 7 and day 10 after initiation of differentiation.
Differentiated 3T3-L1 adipocytes were microinjected with the IRAP-GFP construct used in Example 1 (pcDNA3). […]
The total level of the IRAP-GFP expression is indicated by the level of GFP fluorescence detected (this corresponds to the second detection method of the first aspect of the invention). […] The fluorescence intensity due to IRAP-GFP fluorescence and surface IRAP-GFP immunostaining was computed for each individual cell, using Leica Confocal Software, and a background fluorescence figure subtracted. For each cell, the ratio of background corrected surface:total IRAP-GFP was calculated. […] Each data point represents the red:green fluorescence ratio for one cell.

Compound	MEAN R/G (average ratio of surface:total IRAP-GFP) [1]	translocation of IRAP-GFP to the plasma membrane (red:green ratio surface:total IRAP-GFP per cell, FIG. 4) [2]
COC[C@H]1OC(=O)c2coc3c2[C@@]1(C)C1=C(C3=O)[C@@H]2CCC(=O)[C@@]2(C)C[C@H]1OC(C)=O [Wortmannin, wortmannin, reference compound]	0.363	–
insulin	1.252	a significant proportion of cell undergo translocation
